Laboratory results published in patent US8551952B2, “Methods for the treatment and prevention of ocular disorders” (Scynexis, Inc., priority 2006, dated 2013).
Like-named read-outs stand apart in the source and are kept apart here.

Experiments:
TNF-α = conditions: read-out: Approximate IC50 for cytokine production TNF-α; human T-lymphocytes stimulated with anti-CD3/anti-CD28 beads, 24 hours; average of cultures of two donors
Description: (§1) Assays with human cells are used to determine if compounds I) inhibit T-cell activation (using cytokine release as a biomarker), and 2) reduce or prevent cytokine-induced pathologies.
(§2) Compounds were incubated with stimulated human T-lymphocytes in an in vitro system designed to measure cytokine production; cytokine production is indicative of T-cell activation and consequential cytokine-induced damage in vivo. […] Cells were treated in triplicate with compounds or vehicle (DMSO) in cell culture medium for 2 hours at 37 deg C. Cells were then stimulated with 5 μL of anti-CD3/anti-CD28 ExpandBeads (DynaBeads, Invitrogen 111.31) and incubated for 24 hours. Compounds were tested at three concentrations: 0.02, 0.2 and 2 μM. Untreated controls were performed for each cytokine marker. The following cytokines were quantitatively determined using specific ELISA kits, according to manufacturer instructions: IL2 (Eli-pair, Diaclone), IL4 (ImmunoTools 313.300.49), tumor necrosis factor alpha (TNFα, ImmunoTools 313.330.1), and Interferon gamma (IFN-γ) Eli-pair, Diaclone).

IL4 = conditions: read-out: Approximate IC50 for cytokine production IL4; human T-lymphocytes stimulated with anti-CD3/anti-CD28 beads, 24 hours; average of cultures of two donors
Description: as §1, §2

IFN-γ = conditions: read-out: Approximate IC50 for cytokine production IFN-γ; human T-lymphocytes stimulated with anti-CD3/anti-CD28 beads, 24 hours; average of cultures of two donors
Description: as §1, §2

[1] = test system: T-cell proliferation (T-cells isolated from mouse spleens); conditions: read-out: IC50 MLR; C57BL/6 responder and irradiated BALB/c stimulator spleen cells, 5 days
Description: Murine Mixed Lymphocyte Response (MLR) assay: This assay monitored T-cell proliferation by measurement of tritiated thymidine incorporation into DNA of T-cells isolated from mouse spleens; T-cell proliferation is directly proportional to tritium incorporation into DNA. Pooled spleen cells were prepared from three mice each of two strains: three C57BL/6 and three BALB/c mice. The C57BL/6 mice were used as the Responders (R) and BALB mice were the Stimulators (S) in the MLR. Complete medium consisted of RPMI 1640 supplemented with 25 mM HEPES, 10% heat-inactivated low background fetal bovine serum, 50 μM 2-mercatoethanol, 2 mM L-glutamine, and antibiotics.
The BALB/c spleen cells were gamma irradiated at 3000 Roentgen in a Bevill irradiator and washed once with medium to use as S cells; the stock of S cells was 1.6×10^6/mL in complete medium. The R cells were stocked at 8×10^5/mL in complete medium. Final cell densities were 2×10^5 R and 4×10^5 S per test well in a 96-well microtiter plate. Compounds were diluted from a 10 mM stock solution in DMSO into culture medium; compounds were tested at 10 concentrations between 0.001 and 30 μM (three-fold dilutions).
Background control wells contained 150 μL of medium/0.3% DMSO and 50 μL of R cells (2×10^5/well). All other wells contained 100 μL of medium/0.3% DMSO or compound (also in 0.3% DMSO), 50 μL of R cells (2×10^S/well), and 50 μL of S cells (4×10^5/well). Plates were incubated at 37° C. in 5% CO2 for 5 days, and subsequently pulsed with 1 μCi/well of 3H-thymidine for 6-18 hours. Cells were harvested, and tritium incorporation was measured using a scintillation counter.

[2] = artificial tear formulation
Description: The solubilities of compounds in artificial tear formulations were determined using turbidimetric titration (Schote, et al., 2002. J Pharm Sciences 91(3):856). The different tear formulations are buffered and contain various physiological electrolytes including, sodium, potassium, phosphate, and chloride. The formulations differ primarily in the “active” ingredients that provide lubrication and viscosity.

[3] = test system: chorio-allantoic membranes (CAM) of fertilized chicken eggs; conditions: for Classification: HET-CAM classification of irritation potential; for Total Score: HET-CAM, sum of scores, average across eggs
Description: In this test, chorio-allantoic membranes (CAM) of fertilized chicken eggs are exposed to a solution of the test substance in sterile water. During an incubation period of approximately 5 minutes, irritancy is assessed by visual inspection of the CAM blood vessel network for haemorrhage, lysis and/or coagulation. The time of onset or appearance of each of these effects is scored numerically, the scores are summed to give a single numerical value, and an average numerical score across several eggs is obtained.

eyes of rabbits = conditions: 0.05% (w/w) in an artificial tear formulation, instillation in right eyes over three days
Description: The compounds of the invention were evaluated for tolerability upon instillation in the eyes of rabbits over a three day test period. Rabbits receive five instillations within 20 minutes of fifty microliters of a solution of the test substance in vehicle once on Day 1, twice on Day 2 and four times on Day 3 in the right eyes. Evaluation of ocular irritancy was performed using the Draize scale (Draize et al. J. Pharmacol. Exp. Ther. 1944. 82: 377).

IL2 = conditions: read-out: Approximate IC50 for cytokine production IL2; human T-lymphocytes stimulated with anti-CD3/anti-CD28 beads, 24 hours; average of cultures of two donors
Description: as §1, §2

[4] = HET-CAM score, approximately 5 minutes incubation

Work on `C/C=C/C[C@@H](C)[C@@H](O)[C@H]1C(=O)N[C@@H](CC)C(=O)N(C)C(OCCN(C)C)C(=O)N(C)[C@@H](CC(C)C)C(=O)N[C@@H](C(C)C)C(=O)N(C)[C@@H](CC(C)C)C(=O)N[C@@H](C)C(=O)N[C@H](C)C(=O)N(C)[C@@H](CC(C)C)C(=O)N(C)[C@@H](CC(C)C)C(=O)N(C)[C@@H](C(C)C)C(=O)N1C` (stereo partly shown) [Compound A, 3-[2-(N,N-dimethylamino)ethoxy]cyclosporin] yielded an IC50 (TNF-α) of roughly 2000 nM, an IC50 (IL4) of roughly 2000 nM and an IC50 (IFN-γ) of roughly 2000 nM. The IC50 [1] was 200 nM, the “Minimum Solubility” value ([2]; pH 6.2, Polyethylene glycol 400 (1%), Polyvinyl alcohol (1%)) was 151 µM and the “Minimum Solubility” value ([2]; pH 6.7 (adjusted with HCl from 7.4), Dextran 70 (0.1%), Hydroxypropyl methyl-cellulose 2910 (0.3%)) was 350 µM. For the same compound, the “Minimum Solubility” value ([2]; pH 6.8, Carboxymethylcellulose sodium (0.5%)) was 130 µM, the “Minimum Solubility” value ([2]; pH 7.3, Propylene Glycol (0.95%), Glycerin (0.3%)) was 117 µM and the “Minimum Solubility” value ([2]; pH 7.4, Dextran 70 (0.1%), Hydroxypropyl methyl-cellulose 2910 (0.3%)) was 141 µM. For the same compound, the Classification [3] was “Slightly irritant”, the Lysis [3, 4] was 3.5 and the “Total Score” value [3] was 3.5. For the same compound, the “Ocular tolerability (Draize scale)” value (eyes of rabbits) was “very well tolerated”.

With `CC=CCC(C)C(O)C1C(=O)NC(CC)C(=O)N(C)C(OCCN2CCCCC2)C(=O)N(C)C(CC(C)C)C(=O)NC(C(C)C)C(=O)N(C)C(CC(C)C)C(=O)NC(C)C(=O)NC(C)C(=O)N(C)C(CC(C)C)C(=O)N(C)C(CC(C)C)C(=O)N(C)C(C(C)C)C(=O)N1C` (stereo not shown) [D, 3-[2-(piperidin-1-yl)ethoxy]cyclosporin] the IC50 (TNF-α) was roughly 2000 nM, the IC50 (IL4) was roughly 2000 nM and the IC50 (IL2) was roughly 1000 nM. The IC50 (IFN-γ) was roughly 1000 nM, the IC50 [1] was 200 nM and the Classification [3] was “Slightly irritant”. The Coagulation [3, 4] was 0, the Haemorhage [3, 4] was 0 and the Lysis [3, 4] was 3. The “Total Score” value [3] was 3.0.

With “3-[2-(morpholin-4-yl)ethoxy]cyclosporin [F]” the IC50 (TNF-α) was roughly 200 nM, the IC50 (IL4) was roughly 200 nM and the IC50 (IL2) was roughly 20 nM. For the same compound, the IC50 (IFN-γ) was roughly 200 nM and the IC50 [1] was 500 nM.
